The results in this text go back to ChEMBL document CHEMBL1154010, “Aziridine alkaloids as potential therapeutic agents” (Eur J Med Chem, 2009).

In brackets after ≈: the same amount, converted by molar mass. Bounds are passed on as bounds.

One data set relates to KB. Nature of the data set: Cytotoxicity against human KB cells. It is filed as functional, cell-based.
The nature of data set [1]: Inhibition of sunflower S-adenosyl-L-methionine-C-24 methyltransferase. Also noted: species or system Helianthus annuus.
Data set [2] has as its system Escherichia coli. Nature of the data set: Antimicrobial activity against Escherichia coli BE1186. Format: functional.
Data set [3] concerns Micrococcus luteus. The data set can be described thus: Antimicrobial activity against Micrococcus luteus FDA16. It is filed as functional.
The next data set deals with Klebsiella pneumoniae. Nature of the data set: Antimicrobial activity against Klebsiella pneumoniae PCI602. It is filed as functional.
The subject of data set [4] is Mycolicibacterium smegmatis. The data set can be described thus: Antimicrobial activity against rifamycin-resistant Mycobacterium smegmatis ATCC 607. Format: functional.
Another data set concerns Mycolicibacterium vaccae. The data set can be described thus: Antimicrobial activity against Mycobacterium vaccae ATCC 15483. It is filed as functional.
A further data set has as its system Proteus vulgaris. The data set can be described thus: Antimicrobial activity against Proteus vulgaris OX19. It is filed as functional.
Data set [5] deals with Pseudomonas aeruginosa. Nature of the data set: Antimicrobial activity against Pseudomonas aeruginosa GN315. It is filed as functional.
Data set [6] has as its system Staphylococcus aureus. The data set can be described thus: Antimicrobial activity against Staphylococcus aureus FDA209P. It is filed as functional.
For the next data set, the system named is Bacillus cereus. The data set can be described thus: Antimicrobial activity against Bacillus cereus ATCC 10702. It is filed as functional.
Data set [7] has as its system Staphylococcus aureus. Nature of the data set: Antimicrobial activity against Staphylococcus aureus Smith. Format: functional.
Data set [8] has as its system Escherichia coli. Nature of the data set: Antimicrobial activity against Escherichia coli BE1126. It is filed as functional.
For data set [9], the system named is Micrococcus luteus. The data set can be described thus: Antimicrobial activity against Micrococcus luteus PCI 1001. It is filed as functional.
The subject of the next data set is Shigella flexneri. The data set can be described thus: Antimicrobial activity against Shigella flexneri 4bJS11811. It is filed as functional.
The subject of data set [10] is Mycolicibacterium smegmatis. The data set can be described thus: Antimicrobial activity against capreomycin-resistant Mycobacterium smegmatis ATCC 607. It is filed as functional.
In data set [11] the test system is Escherichia coli. The data set can be described thus: Antimicrobial activity against Escherichia coli BEM11. It is filed as functional.
For data set [12], the system named is Mycolicibacterium smegmatis. The data set can be described thus: Antimicrobial activity against paromomycin-resistant Mycobacterium smegmatis ATCC 607. Format: functional.
Another data set relates to Proteus mirabilis. The data set can be described thus: Antimicrobial activity against Proteus mirabilis IFM OM-9. Format: functional.
Data set [13] concerns Providencia rettgeri. Nature of the data set: Antimicrobial activity against Providencia rettgeri GN311. Format: functional.
The test system of data set [14] is Staphylococcus aureus. Nature of the data set: Antimicrobial activity against Staphylococcus aureus MS9610. It is filed as functional.
Data set [15] concerns Escherichia coli. The data set can be described thus: Antimicrobial activity against Escherichia coli K-12 MLI629. It is filed as functional.
Data set [16] concerns Staphylococcus aureus. The data set can be described thus: Antimicrobial activity against methicillin-resistant Staphylococcus aureus isolate 17. It is filed as functional.
Data set [17] relates to Escherichia coli. The data set can be described thus: Antimicrobial activity against Escherichia coli NIHJ. It is filed as functional.
Data set [18] relates to Bacillus subtilis. The data set can be described thus: Antimicrobial activity against Bacillus subtilis NRRL B-558. Format: functional.
Data set [19] relates to Salmonella enterica subsp. enterica. The data set can be described thus: Antimicrobial activity against Salmonella typhi T-63. Format: functional, Salmonella enterica subsp. enterica serovar Typhi.
Data set [20] has the same test system. Nature of the data set: Antimicrobial activity against Salmonella enteritidis 1891. It is filed as functional, Salmonella enterica subsp. enterica serovar Enteritidis.
For another data set, the system named is Bacillus anthracis. Nature of the data set: Antimicrobial activity against Bacillus anthracis. Format: functional.
The subject of data set [21] is Mycolicibacterium smegmatis. The data set can be described thus: Antimicrobial activity against streptothricin-resistant Mycobacterium smegmatis ATCC 607. Format: functional.
Data set [22] relates to Pseudomonas aeruginosa. The data set can be described thus: Antimicrobial activity against Pseudomonas aeruginosa A3. It is filed as functional.
The subject of data set [23] is Micrococcus luteus. Nature of the data set: Antimicrobial activity against Micrococcus luteus IFO 3333. Format: functional.
Another data set deals with Shigella dysenteriae. Nature of the data set: Antimicrobial activity against Shigella dysenteriae JS1 1910. Format: functional.
The test system of data set [24] is Escherichia coli. The data set can be described thus: Antimicrobial activity against Escherichia coli K-12. It is filed as functional.
In data set [25] the test system is Salmonella enterica subsp. enterica. Nature of the data set: Antimicrobial activity against Salmonella typhi JS11746. It is filed as functional, Salmonella enterica subsp. enterica serovar Typhi.
Data set [26] relates to Bacillus subtilis. The data set can be described thus: Antimicrobial activity against Bacillus subtilis PCI 219. It is filed as functional.
The subject of data set [27] is Providencia rettgeri. Nature of the data set: Antimicrobial activity against Providencia rettgeri GN466. Format: functional.
The subject of data set [28] is Staphylococcus aureus. The data set can be described thus: Antimicrobial activity against methicillin-resistant Staphylococcus aureus isolate 5. Format: functional.
The subject of data set [29] is Mycolicibacterium smegmatis. Nature of the data set: Antimicrobial activity against Mycobacterium smegmatis ATCC 607. It is filed as functional.
In data set [30] the test system is Mycolicibacterium smegmatis. Nature of the data set: Antimicrobial activity against streptomycin-resistant Mycobacterium smegmatis ATCC 607. Format: functional.
The subject of the next data set is Corynebacterium bovis. Nature of the data set: Antimicrobial activity against Corynebacterium bovis 1810. It is filed as functional.
Data set [31] can be described thus: Toxicity in rat bearing M1 cells assessed as mortality at 40% LD50 per day. It is filed as organism-based. As to conditions: m1, 40 % LD50 per day, read-out: Activity.
A further data set has as its system LoVo. Nature of the data set: Cytotoxicity against human LoVo cells. It is filed as functional, cell-based.

Broadly, the IC50 is the concentration that gives 50% inhibition. High values mean weaker potency, low ones greater potency. In the data set with KB, `C/C(=C\c1csc(C)n1)[C@@H]1C[C@H]2[C@@H](CCC[C@H](C)[C@H](O)[C@@H](C)C(=O)C(C)(C)[C@@H](O)CC(=O)O1)N2CCO` (some centres not stated) displayed an IC50 of 4.3 nM.
By Ki is commonly meant the equilibrium dissociation constant of an inhibitor or competing ligand from its target. With `C[C@H](CCC1NC1(C)C)[C@H]1CC[C@@]2(C)C3=C(CC[C@]12C)[C@@]1(C)CC[C@H](O)C(C)(C)[C@@H]1CC3` (mixture of isomers), the affinity in [1] corresponds to a Ki of 3 nM.
As usually defined, the MIC is the smallest concentration in the dilution series that meets the test's criterion for growth inhibition. As for `COc1c(O)cc2c(OC)c3c(c(O)c2c1O)C(=O)CC1CC(O)(C2CN2)CC(=O)C31O` (configuration not stated) [AZICEMICIN B], the MIC came to 100 µg/mL (≈ 225 µM) against Escherichia coli [2]; 6.25 µg/mL (≈ 14 µM) against Micrococcus luteus [3]; 100 µg/mL (≈ 225 µM) against Klebsiella pneumoniae; 25 µg/mL (≈ 56.1 µM) in data set [4]; 6.25 µg/mL (≈ 14 µM) with Mycolicibacterium vaccae; 100 µg/mL (≈ 225 µM) in the data set on Proteus vulgaris. Also, the MIC against Pseudomonas aeruginosa [5] amounted to 100 µg/mL (≈ 225 µM); in the data set with Staphylococcus aureus [6] it was 100 µg/mL (≈ 225 µM); with Bacillus cereus it was 100 µg/mL (≈ 225 µM); against Staphylococcus aureus [7], 100 µg/mL (≈ 225 µM); in the data set on Escherichia coli [8], 100 µg/mL (≈ 225 µM); in the data set on Micrococcus luteus [9], 1.56 µg/mL (≈ 3.5 µM). For the same compound, the MIC with Shigella flexneri amounted to 100 µg/mL (≈ 225 µM); in data set [10], 12.5 µg/mL (≈ 28.1 µM); against Escherichia coli [11], 100 µg/mL (≈ 225 µM); in data set [12] it was 6.25 µg/mL (≈ 14 µM); in the data set with Proteus mirabilis, 100 µg/mL (≈ 225 µM); in the data set on Providencia rettgeri [13] it was 100 µg/mL (≈ 225 µM). The MIC against Staphylococcus aureus [14] came to 100 µg/mL (≈ 225 µM); against Escherichia coli [15], 100 µg/mL (≈ 225 µM); in the data set on Staphylococcus aureus [16], 100 µg/mL (≈ 225 µM); with Escherichia coli [17], 25 µg/mL (≈ 56.1 µM); against Bacillus subtilis [18], 100 µg/mL (≈ 225 µM); in data set [19] it was 100 µg/mL (≈ 225 µM). Also, the MIC in [20] was greater than 50 µg/mL; in the data set with Bacillus anthracis, 100 µg/mL (≈ 225 µM); in [21], 25 µg/mL (≈ 56.1 µM); in the data set on Pseudomonas aeruginosa [22], greater than 50 µg/mL; in the data set with Micrococcus luteus [23], 1.56 µg/mL (≈ 3.5 µM); with Shigella dysenteriae, 25 µg/mL (≈ 56.1 µM). For the same compound, the MIC in the data set on Escherichia coli [24] is 100 µg/mL (≈ 225 µM); in data set [25] it was 100 µg/mL (≈ 225 µM); in the data set on Bacillus subtilis [26], 100 µg/mL (≈ 225 µM); in the data set on Providencia rettgeri [27] it was 100 µg/mL (≈ 225 µM); in the data set with Staphylococcus aureus [28], 100 µg/mL (≈ 225 µM); in [29], 12.5 µg/mL (≈ 28.1 µM). Besides, the MIC (in [30]; against Corynebacterium bovis) was 6.25 µg/mL (≈ 14 µM) throughout.
For `CC1SCCN1P(=O)(N1CC1)N1CC1` (configuration not stated) [MARCOPHAN], in data set [31], the mortality was 25%.
The compound `CC(=O)[C@]1(O)Cc2c(O)c3c(c(O)c2[C@@H](OC2C[C@H](N4CC4)[C@H](OS(C)(=O)=O)[C@H](C)O2)C1)C(=O)c1ccccc1C3=O` (some centres not stated) came in with an IC50 in the data set with LoVo of 0.0027 µg/mL (≈ 0.00449 µM).
